For this test, the target named is T1, mouse RORγt (Mus musculus, UniProt P51450).
T1 construct: mouse RORγt (amino acids 79 to the carboxyl terminal end); expressed in transfected cells
T1 sequence (P51450 79-495 isoform P51450-2): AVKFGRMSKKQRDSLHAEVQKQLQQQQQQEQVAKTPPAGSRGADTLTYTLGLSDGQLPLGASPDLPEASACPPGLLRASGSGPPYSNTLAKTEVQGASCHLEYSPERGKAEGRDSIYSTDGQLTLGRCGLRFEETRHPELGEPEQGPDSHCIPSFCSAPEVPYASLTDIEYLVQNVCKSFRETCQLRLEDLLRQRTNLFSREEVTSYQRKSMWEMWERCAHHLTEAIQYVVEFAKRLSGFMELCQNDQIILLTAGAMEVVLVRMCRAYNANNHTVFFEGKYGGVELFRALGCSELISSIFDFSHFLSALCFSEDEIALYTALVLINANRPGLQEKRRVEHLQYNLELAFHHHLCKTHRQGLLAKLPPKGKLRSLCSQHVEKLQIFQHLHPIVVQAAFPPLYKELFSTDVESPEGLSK
In words: Drosophila S2 cell RORγt luciferase reporter. The test is classed as cell-based. The text has this:
The Drosophila S2 cell line was originally purchased from Invitrogen and was maintained in Schneider's medium supplemented with 10% heat-inactivated bovine fetal calf serum and antibiotics (Invitrogen). […] The resulting chimeric gene was subcloned into the copper inducible pMT/V5-His A vector (Invitrogen). […] Coding sequences for firefly luciferase (Promega) were PCR amplified and subcloned into pUAST vector containing Gal4 binding enhancer sequences. Renilla luciferase construct under the polIII promoter was obtained from Dr. Dasgupta's laboratory (NYU medical center). In order to generate stable cell lines, cells were co-transfected with pMT-G4 DBD-RORγt, pMT-G4 DBD-RORα, pMT-G4 DBD-DHR3, or pMT-G4 DBDVP16 and pHygro plasmids (Invitrogen) and screened for resistant colonies in the presence of hygromycin (0.3 mg/mL). […] Using similar methods, stable clones with genomic integration of the luciferase reporters and other reporters were generated such as pMT-RORα_luc, pMT-DHR3_Luc, or pMT-VP16_luc.
The following representative compounds are tested for their RORγt inhibitory activity and toxicity.
Promega Dual-Glo system is widely used for HTS as the luciferase substrates. Cell culture medium was reduced to the final volume of 10 μl or less and 10 μl of Dual-glo and 10 μl of Stop-glo luciferase substrates were added in a sequencial manner (Promega). Firefly and Renilla luciferase activity was determined by measuring luminescence signals using an automated 384-well plate reader equipped with multiple stack units (such as the Analyst GT or Envision plate readers).
10,000 Drosophila stable S2 cells with genomic integration of the Cu2+-inducible G4 DBD-mouse RORγ construct were transfected with 5 ng of pUASTfirefly luciferase and 7 ng of Pol III-Renilla luciferase and dispensed into white bottom-tissue culture 384-well plates (Corning). […] The following morning, Stop-glo luciferase substrates (Promega) were used to measure luciferase activity.
The Drosophila S2 cell line was originally purchased from Invitrogen and was maintained in Schneider's Drosophila medium supplemented with 10% heat-inactivated bovine fetal calf serum and 1× antibiotic-antimycotic solution (Invitrogen). […] The resulting chimeric gene was subcloned into the copper inducible pMT/V5-His A vector (Invitrogen) and into the constitutive pAc vector. […] Coding sequences for firefly luciferase (Promega) were PCR amplified and subcloned into the pUAST vector containing five Gal4 binding enhancer sequences. The Renilla luciferase construct under a pol III promoter and the pAc vector were obtained from R. Dasgupta (NYU School of Medicine). To generate cell lines stably expressing various chimeric proteins upon copper addition, S2 cells were co-transfected with pMT plasmids encoding individual G4 DBD chimeric constructs and the pCoHygro plasmid (Invitrogen), before screening for resistant colonies in the presence of hygromycin (0.3 mg/mL). […] The human androgen receptor (hAR) expression plasmid pMK33-hAR and its reporter TAT3-Luc were obtained from M. Garabedian (NYU School of Medicine). […] R1881 (10 nM) and Dafachronic acid (10 μM) were used as ligands for hAR and Daf12. Upon treatment of cells with copper, in 384 well plates, there was specific increase in firefly luciferase activity versus normalized Renilla luciferase activity for all cell lines described above, validating the method for high-throughput screen.
Transfections of firefly and Renilla reporter constructs were performed using the Effectene kit from Qiagen according to the manufacturer's protocol with some modifications.
A general note: A reporter such as luciferase makes a cellular process visible.

Read-outs that look alike come from different tables or passages of the source.

As to `CC1O[C@@H](OC2C(C)O[C@H](OC3C(C)O[C@@H](O[C@H]4CC[C@@]5(C)[C@H](CC[C@@H]6[C@@H]5C[C@@H](O)[C@]5(C)[C@@H](C(CO)CCO)CC[C@]65O)C4)C[C@H]3O)C[C@H]2O)C[C@@H](O)C1O` (stereo partly shown) [Compound 13, 20,22-Dihydrodigoxin-21,23-diol], the IC50 lay in the range of 11 to 20 µM and the “effect on RORγ transcriptional activity” value is “still possessed RORγ inhibitory activity”.
Regarding `C[C@H]1O[C@@H](O[C@H]2[C@@H](O)C[C@H](O[C@H]3[C@@H](O)C[C@H](O[C@H]4CC[C@@]5(C)[C@H](CC[C@@H]6[C@@H]5C[C@@H](O)[C@]5(C)[C@@H](C7=CC(=O)OC7)CC[C@]65O)C4)O[C@@H]3C)O[C@@H]2C)C[C@H](O)[C@@H]1O` [Digoxin], the IC50 runs as follows: (S2 cell RORγt reporter, read-out: IC50) 1 to 10 µM; (read-out: IC50 (half-maximal inhibitory concentration), RORγ transcriptional activity) 1.98 µM.

Values taken from patent US9505798B2, “Steroid compounds as RORyt modulators and uses thereof” (New York University, priority 2010, dated 2016).
